Patent US8557800B2, “Sphingosine kinase inhibitors” (Apogee Biotechnology Corporation, priority 2005, dated 2013)

What was measured:
[1] = test system: recombinant human SK; experiment: Inhibition of recombinant human SK, LC/MS/MS assay; format: biochemical; details: 6 μg/ml compound
Procedure: SK activity is measured by incubation of the recombinant SK with [^3H]sphingosine and 1 mM ATP under defined conditions, followed by extraction of the assay mixture with chloroform:methanol under basic conditions. […] Radioactivity in aliquots of the aqueous phase is then quantified as a measure of [^3H]S1P formation.
In an alternate assay procedure, the recombinant human SK was incubated with unlabeled sphingosine and ATP as described above. After 30 minutes, the reactions were terminated by the addition of acetonitrile to directly extract the newly synthesized S1P. The amount of S1P in the samples is then quantified as follows. C17 base D-erythro-sphingosine and C17 SIP are used as internal standards for sphingosine and S1P, respectively. […] The lipids are then fractionation by High-Performance Liquid Chromatography using a C8-reverse phase column eluted with 1 mM methanolic ammonium formate/2 mM aqueous ammonium formate. […] Calibration curves are generated by plotting the peak area ratios of the synthetic standards for each sphingolipid, and used to determine the normalized amounts of sphingosine and S1P in the samples.
Each Compound of this invention was tested for its ability to inhibit recombinant SK using the LC/MS/MS assay described above.

[2] = test system: MCF-7 human breast adenocarcinoma cells; experiment: Cytotoxicity, SRB binding assay; format: cell-based; details: MCF7, inhibition of cell proliferation, 48 h, read-out: MCF-7 IC50
Procedure: To further assess the biological efficacies of the Compounds in intact cells, each Compound was evaluated for cytotoxicity using human cancer cell lines. These experiments followed methods that have been extensively used. Cell lines tested included MCF-7 human breast adenocarcinoma cells and MCF-10A non-transformed human breast epithelial cells. The indicated cell lines were treated with varying doses of the test Compound for 48 h. Cell survival was then determined using the SRB binding assay (Skehan et al., 1990, J Natl Cancer Inst 82: 1107), and the concentration of compound that inhibited proliferation by 50% (the IC50) was calculated. Values (in μM) represent the mean±sd for replicate trials.

Structure (SMILES) | Recombinant SK (% inhibition) [1] [%] | IC50 [2] [µM]
O=C(NC1CC1)C12CC3CC(C1)CC(c1ccc(Cl)cc1)(C3)C2 [Compound 2, 3-(4-Chloro-phenyl)-adamantane-1-carboxylic acid cyclopropylamide] | 0 | 20
CCSCCNC(=O)C12CC3CC(C1)CC(c1ccc(Cl)cc1)(C3)C2 [Compound 3, 3-(4-Chloro-phenyl)-adamantane-1-carboxylic acid (2-ethylsulfanyl-ethyl)-amide] | 6 | 18
CC(=O)Oc1ccc(NC(=O)C23CC4CC(C2)CC(c2ccc(Cl)cc2)(C4)C3)cc1 [Compound 7, Acetic acid 4-{[3-(4-chloro-phenyl)-adamantane-1-carbonyl]-amino}-phenyl ester] | 100 | 3
CSc1ccc(CNC(=O)C23CC4CC(C2)CC(c2ccc(Cl)cc2)(C4)C3)cc1 [Compound 14, 3-(4-Chloro-phenyl)-adamantane-1-carboxylic acid 4-methylsulfanyl-benzylamide] | 19 | 36
O=C(NCc1ccc(C(F)(F)F)cc1)C12CC3CC(C1)CC(c1ccc(Cl)cc1)(C3)C2 [Compound 16, 3-(4-Chloro-phenyl)-adamantane-1-carboxylic acid 4-trifluoromethyl-benzylamide] | 8 | 17
O=C(NCc1cc(C(F)(F)F)cc(C(F)(F)F)c1)C12CC3CC(C1)CC(c1ccc(Cl)cc1)(C3)C2 [Compound 17, 3-(4-Chloro-phenyl)-adamantane-1-carboxylic acid 3,5-bis-trifluoromethyl-benzylamide] | 56 | 17
O=C(NCc1cc(F)cc(C(F)(F)F)c1)C12CC3CC(C1)CC(c1ccc(Cl)cc1)(C3)C2 [Compound 18, 3-(4-Chloro-phenyl)-adamantane-1-carboxylic acid 3-fluoro-5-trifluoromethyl-benzylamide] | 0 | 19
O=C(NCc1cc(F)cc(F)c1)C12CC3CC(C1)CC(c1ccc(Cl)cc1)(C3)C2 [Compound 20, 3-(4-Chloro-phenyl)-adamantane-1-carboxylic acid 3,5-difluoro-benzylamide] | 0 | 33
O=C(NCc1ccc(F)c(F)c1)C12CC3CC(C1)CC(c1ccc(Cl)cc1)(C3)C2 [Compound 21, 3-(4-Chloro-phenyl)-adamantane-1-carboxylic acid 3,4-difluoro-benzylamide] | 65 | 27
O=C(NCc1cc(F)c(F)c(F)c1)C12CC3CC(C1)CC(c1ccc(Cl)cc1)(C3)C2 [Compound 22, 3-(4-Chloro-phenyl)-adamantane-1-carboxylic acid 3,4,5-trifluoro-benzylamide] | 56 | 18
O=C(NCc1ccc(F)c(Cl)c1)C12CC3CC(C1)CC(c1ccc(Cl)cc1)(C3)C2 [Compound 23, 3-(4-Chloro-phenyl)-adamantane-1-carboxylic acid 3-chloro-4-fluoro-benzylamide] | 0 | 23
O=C(NCc1ccc(F)c(C(F)(F)F)c1)C12CC3CC(C1)CC(c1ccc(Cl)cc1)(C3)C2 [Compound 24, 3-(4-Chloro-phenyl)-adamantane-1-carboxylic acid 4-fluoro-3-trifluoromethyl-benzylamide] | 20 | 17
O=C(NCc1ccc(F)cc1Cl)C12CC3CC(C1)CC(c1ccc(Cl)cc1)(C3)C2 [Compound 25, 3-(4-Chloro-phenyl)-adamantane-1-carboxylic acid 2-chloro-4-fluoro-benzylamide] | 47 | 87
O=C(NCc1ccc(Cl)c(C(F)(F)F)c1)C12CC3CC(C1)CC(c1ccc(Cl)cc1)(C3)C2 [Compound 26, 3-(4-Chloro-phenyl)-adamantane-1-carboxylic acid 4-chloro-3-trifluoromethyl-benzylamide] | 36 | 19
NCc1c(Cl)c(Cl)c(Cl)c(CNC(=O)C23CC4CC(C2)CC(c2ccc(Cl)cc2)(C4)C3)c1Cl [Compound 27, 3-(4-Chloro-phenyl)-adamantane-1-carboxylic acid 3-aminomethyl-2,4,5,6-tetrachloro-benzylamide] | 50 | 8
CC(NC(=O)C12CC3CC(C1)CC(c1ccc(Cl)cc1)(C3)C2)c1ccc(Cl)cc1 (centres unmarked) [Compound 28, 3-(4-Chloro-phenyl)-adamantane-1-carboxylic acid [1-(4-chloro-phenyl)-ethyl]-amide] | 6 | 64
CS(=O)(=O)c1ccc(CNC(=O)C23CC4CC(C2)CC(c2ccc(Cl)cc2)(C4)C3)cc1 [Compound 30, 3-(4-Chloro-phenyl)-adamantane-1-carboxylic acid 4-methanesulfonyl-benzylamide] | 1 | 14
CN(C)c1ccc(CNC(=O)C23CC4CC(C2)CC(c2ccc(Cl)cc2)(C4)C3)cc1 [Compound 31, 3-(4-Chloro-phenyl)-adamantane-1-carboxylic acid 4-dimethylamino-benzylamide] | 74 | 74
O=C(NCc1ccc(OC(F)(F)F)cc1)C12CC3CC(C1)CC(c1ccc(Cl)cc1)(C3)C2 [Compound 32, 3-(4-Chloro-phenyl)-adamantane-1-carboxylic acid 4-trifluoromethoxy-benzylamide] | 17 | 24
O=C(NCc1cccc(OC(F)(F)F)c1)C12CC3CC(C1)CC(c1ccc(Cl)cc1)(C3)C2 [Compound 33, 3-(4-Chloro-phenyl)-adamantane-1-carboxylic acid 3-trifluoromethoxy-benzylamide] | 10 | 30
O=C(NCc1ccc(Oc2ccccc2)cc1)C12CC3CC(C1)CC(c1ccc(Cl)cc1)(C3)C2 [Compound 34, 3-(4-Chloro-phenyl)-adamantane-1-carboxylic acid 4-phenoxy-benzylamide] | 0 | > 106
O=C(NCc1ccc(O)c(O)c1)C12CC3CC(CC(C3)C1)C2 [Compound 35, Adamantane-1-carboxylic acid 3,4-dihydroxy-benzylamide] | 87 | 19
COc1ccc(CCNC(=O)C23CC4CC(C2)CC(c2ccc(Cl)cc2)(C4)C3)cc1Br [Compound 42, 3-(4-Chloro-phenyl)-adamantane-1-carboxylic acid [2-(3-bromo-4-methoxy-phenyl)-ethyl]-amide] | 5 | > 100
O=C(NCCc1ccc(O)c(O)c1)C12CC3CC(CC(C3)C1)C2 [Compound 43, Adamantane-1-carboxylic acid [2-(3,4-dihydroxy-phenyl)-ethyl]-amide] | 0 | 27
O=C(NCCc1ccc2c(c1)OCO2)C12CC3CC(C1)CC(c1ccc(Cl)cc1)(C3)C2 [Compound 45, 3-(4-Chloro-phenyl)-adamantane-1-carboxylic acid (2-benzo[1,3]dioxol-5-yl-ethyl)-amide] | 64 | 17
